Measurements as given in patent US20230212146A1, “TRIARYLPYRIDINE COMPOUNDS AND USE THEREOF FOR TREATING CANCER” (INSTITUT NATIONAL DE LA SANTEET DE LA RECHERCHE …, priority 2020, published 2023).

system: U2OS expressing Galectin3-mCherry cells; assay: Lysosomal membrane permeabilization (LMP), quantification of Galectin 3 puncta; type: cell-based, human; conditions: compound alone, without chloroquine, 24 h; 2 μM of 1a, 1 μM of 1b, 1 μM of 1c
Protocol: The data are presented as the mean percentage of 15 values from 5 randomly chosen area in each of the three independent experiments. Ordinate: Percentage of cells with Galectin3 puncta.
Lysosomal membrane damage was assessed thanks to U2OS expressing Galectin3-mCherry cells. […] Cells were then washed with PBS, fixed with 4% (v/v) paraformaldehyde for 10 min at room temperature and then nucleic were counterstained for 15 min with Hoechst 33258. Image acquisition was made with a Leica DMI8 epifluorescence microscope, with a ×20 objective (NA 0.40) equipped with a digital CMOS camera (Hamamatsu photonics) and filter bloc for detection of phase contrast and blue (exc: 325-375 nm/em: 435-485 nm) and red (exc: 541-551 nm/em: 565-605 nm) fluorescence. Each image was collected with identical exposure times and scaled equally. Five images were acquired for each condition and then analyzed thanks to ImageJ software (Schneider et al., 2012, 9(7): 671-675) in order to count manually the number of cells, and automatically the number of Galectin3 punctae within each cell by using the “Find Maxima” tool.

Structure (SMILES)	percentage of cells with Gal3 puncta [%]
CSc1ccc(-c2cc(-c3ccc(-n4cc(CCCN5CCN(C)CC5)nn4)cc3)nc(-c3ccc(-n4cc(CCCN5CCN(C)CC5)nn4)cc3)c2)cc1 [Compound 1b]	31
CSc1ccc(-c2cc(-c3ccc(-n4cc(CCCN5CCCC5)nn4)cc3)nc(-c3ccc(-n4cc(CCCN5CCCC5)nn4)cc3)c2)cc1 [Compound 1a]	26
CSc1ccc(-c2cc(-c3ccc(-n4cc(CCN5CCN(C)CC5)nn4)cc3)nc(-c3ccc(-n4cc(CCN5CCN(C)CC5)nn4)cc3)c2)cc1 [Compound 1c]	25

same assay, conditions: with 25 μM chloroquine, 24 h; 2 μM of 1a, 1 μM of 1b, 1 μM of 1c

Structure (SMILES)	percentage of Gal3 puncta positive cells [%]
CSc1ccc(-c2cc(-c3ccc(-n4cc(CCCN5CCN(C)CC5)nn4)cc3)nc(-c3ccc(-n4cc(CCCN5CCN(C)CC5)nn4)cc3)c2)cc1 [Compound 1b]	56
CSc1ccc(-c2cc(-c3ccc(-n4cc(CCCN5CCCC5)nn4)cc3)nc(-c3ccc(-n4cc(CCCN5CCCC5)nn4)cc3)c2)cc1 [Compound 1a]	57
CSc1ccc(-c2cc(-c3ccc(-n4cc(CCN5CCN(C)CC5)nn4)cc3)nc(-c3ccc(-n4cc(CCN5CCN(C)CC5)nn4)cc3)c2)cc1 [Compound 1c]	45

system: F21T oligonucleotide (human telomeric intramolecular quadruplex); assay: FRET melting analysis, G-quadruplex stabilization; type: binding; conditions: compounds at 1-10 μM, 0.2 μM F21T, 10 mM KCl, 90 mM LiCl, pH 7.2
Protocol: Ordinate: melting temperature (Tm) in Celsius scale (° C.). Abscissa (from left to right): (i) Compounds 1a at 10 μM, 5 μM, 2.5 μM, 1 μM; (ii) Compounds 1b at 10 μM, 5 μM, 2.5 μM, 1 μM; (iii) Compounds 1c at 10 μM, 5 μM, 2.5 μM, 1 μM.
FRET melting experiments were conducted using the F21T oligonucleotide.

Structure (SMILES)	stabilization of the F21T quadruplex (melting temperature Tm)
CSc1ccc(-c2cc(-c3ccc(-n4cc(CCCN5CCN(C)CC5)nn4)cc3)nc(-c3ccc(-n4cc(CCCN5CCN(C)CC5)nn4)cc3)c2)cc1 [Compound 1b]	stabilize an intramolecular quadruplex
CSc1ccc(-c2cc(-c3ccc(-n4cc(CCCN5CCCC5)nn4)cc3)nc(-c3ccc(-n4cc(CCCN5CCCC5)nn4)cc3)c2)cc1 [Compound 1a]	stabilize an intramolecular quadruplex
CSc1ccc(-c2cc(-c3ccc(-n4cc(CCN5CCN(C)CC5)nn4)cc3)nc(-c3ccc(-n4cc(CCN5CCN(C)CC5)nn4)cc3)c2)cc1 [Compound 1c]	stabilize an intramolecular quadruplex

system: HeLa cells; assay: MTT cell viability assay; type: cell-based, human; conditions: 24 h treatment, mean of 4 independent experiments in quadruplicate
Protocol: HeLa cells were treated with 1 μM to 10 μM concentrations of compounds 20A (▾), 1a (grey ▴), 1b (●) and 1c (▪) for 24h. Cell viability was assessed by the MMT assay. Plotted are mean±SD of one representative experiment each performed in quadruplicate. IC50 is scored for each compound from 4 independent experiments performed in quadruplicate. Ordinate: Percentage of HeLa cell viability. Abscissa: Concentrations of compounds 20A, 1a, 1b and 1c.
MTT assay was used to monitor cell viability in HeLa cells subjected to different treatments. Briefly, cells were seeded in a 96-well plate (4×10^3 cells/well). After 24 h of treatment of cells with drug, MTT was added to each well to a final concentration of 0.5 mg/ml during 3 h at 37° C. The supernatant of cells was then removed, and 100 μl of DMSO was added per well. The absorbance in each well was measured at 570 nm and 630 nm using a Flexstation 3 microplate reader (Molecular Devices). 4 independent experiences were conducered, each performed in quadruplicate. To determine the IC50 of compounds 20A, 1a, 1b and 1c, a non-linear regression curve was fit using GraphPad Prism software.

Structure (SMILES)	IC50 [µM]
CSc1ccc(-c2cc(-c3ccc(-n4cc(CCCN5CCN(C)CC5)nn4)cc3)nc(-c3ccc(-n4cc(CCCN5CCN(C)CC5)nn4)cc3)c2)cc1 [Compound 1b]	3.15
CSc1ccc(-c2cc(-c3ccc(-n4cc(CCCN5CCCC5)nn4)cc3)nc(-c3ccc(-n4cc(CCCN5CCCC5)nn4)cc3)c2)cc1 [Compound 1a]	4.34
CSc1ccc(-c2cc(-c3ccc(-n4cc(CCN5CCN(C)CC5)nn4)cc3)nc(-c3ccc(-n4cc(CCN5CCN(C)CC5)nn4)cc3)c2)cc1 [Compound 1c]	3.62
